Key:
IGF-I = IGF-I (Homo sapiens, UniProt P05019); assay: SPR affinity of DX-2647, IGF-I; settings: 1:1 binding model
Text: IGF-II and the related growth factor, IGF-I, share 70% homology at the amino acid level.

IGF-II [1] = biological target: T1, IGF-II (Homo sapiens, UniProt P01344); assay: SPR affinity of DX-2647 (IgG captured on anti-human Fc chip), IGF-II; settings: 1:1 binding model
T1 construct: IGF-II (amino acids 1-67)

[2] = test system: human SKUT-1 myosarcoma cell; assay: Cisplatin (CDDP)-induced cytotoxicity in SKUT-1 cells (CellTitreBlue); format: cell-based; settings: 20% FCS, 48 hours
HepG2 cells = assay: HepG2 anchorage dependent colony formation; format: cell-based; settings: 1 nM; 10% FBS; 7 days
Protocol: HepG2 cells were seeded into a 6-well plate at 1000 cells/well in 2 ml of culture medium containing 10% FBS. […] Isotype control IgG (Ctrl. IgG) was used at 100 nM. After incubation cells were fixed and stained with crystal violet blue. Five pictures were taken randomly from each well and data were analyzed using the MetaMorph software. The results are summarized graphically in FIG. 10.

[3] = test system: IGF-II induced Colo205 cell proliferation; assay: IGF-II induced Colo205 cell proliferation in serum free medium; format: cell-based; settings: 2 nM IGF-II, 96 h
Protocol: In this experiment, cells were cultured in serum free medium containing 2 nM IGF-II. […] Neutralizing IGF-II antibody (R&D Systems) was used at 333 nM as a positive control. […] IGF-II neutralizing antibody from R&D at 333 nM was used as a positive control. The plate was placed in a 37° C. incubator with 5% CO2 for 4 days. Proliferation was measured by CellTiter 96Aqueous One Solution Reagent (Promega).

IGF-IIE [4] = biological target: T2, IGF-IIE (Homo sapiens, UniProt P01344); assay: SPR affinity of DX-2647 (IgG captured on anti-human Fc chip), IGF-IIE; settings: 1:1 binding model
T2 construct: the construct comprising amino acids 1-104, which encompass the E domain

[5] = test system: HepG2 human hepatoma cells; assay: HepG2 anchorage-independent colony formation in soft agar; format: cell-based; settings: 10% FCS, two weeks
Protocol: Cells were seeded in growth medium plus 10% FCS in soft agar in the presence of increasing concentrations of antibody. Colonies>50 cells were counted after two weeks. […]

Colo205 cells = assay: Colo205 cell proliferation in complete medium containing 10% FBS; format: cell-based; settings: 2 μM, 4 days
Protocol: The plate was placed in a 37° C. incubator with 5% CO2 for 4 days. Proliferation was measured by CellTiter 96Aqueous One Solution Reagent (Promega). […] Colo205 cells have two cell populations in culture vessels.

IGF-II [6] = biological target: T1, IGF-II; assay: SPR assays of DX-2647 binding to IGF-II complexed with receptors/IGFBPs
Text: (§1) While the IGF-IR and IR-A are the principal mediators of the biological activity of IGF-II, the protein can bind with high affinity to a number of other proteins that include a family of six serum IGF-binding proteins (IGFBP 1-6), and the cell-surface mannose-6-phosphate receptor (IGF-IIR).

Hep3B cells = assay: Hep3B anchorage dependent colony formation assay; format: cell-based; settings: two concentrations; 10% FBS; 1 week
Text: Colonies>50 cells were scored in three independent experiments, each with triplicate dishes.

IGF-IIE [7] = biological target: T2, IGF-IIE; assay: SPR assays of DX-2647 binding to IGF-IIE complexed with receptors/IGFBPs; settings: FIGS. 5A and 5B
Text: as §1

[8] = test system: IGF-II-induced IGF-1R phosphorylation in Hep3B cells; assay: IGF-II-induced IGF-1R phosphorylation in Hep3B cells (IP/WB); format: cell-based
Protocol: (§2) After being washed twice with ice-cold PBS containing 1 mM sodium orthovanadate, cells were lysed and immunoprecipitated with anti-IGF-IR antibody. Immunoprecipitated proteins were resolved in a 4-12% Bis-tris gel, and transferred to a PVDF membrane. The membrane was probed with anti-phospho-IGF-IR (p-IGF-1R) antibody first, and then stripped and re-probed with anti-IGF-IR antibody for detection of total IGF-1R proteins.

[9] = test system: autocrine IGF-II induced IGF-1R phosphorylation in Hep3B cells; assay: Autocrine (endogenous) IGF-II induced IGF-1R phosphorylation in Hep3B cells (IP/WB); format: cell-based; settings: 10 nM, 48 h serum free
Protocol: Hep3B cells synthesize and secrete IGF-II which in turn binds IGF-1R and induces IGF-1R phosphorylation in an autocrine fashion. The autocrine IGF-II induced IGF-1R phosphorylation can be detected by IP/WB analysis after 48 h serum starvation of cells. […] To perform the experiments, Hep3B cells were seeded and cultured for 24 h. […] After being washed twice with ice-cold PBS containing 1 mM sodium orthovanadate, cells were lysed and immunoprecipitated with anti-IGF-IR antibody. Immunoprecipitated proteins were resolved in a 4-12% Bis-tris gel, and transferred to a PVDF membrane. The membrane was probed with anti-phospho-IGF-IR (p-IGF-1R) antibody first, and then stripped and re-probed with anti-IGF-IR antibody for detection of total IGF-1R proteins.

[10] = test system: IGF-IR phosphorylation in Colo205 cells; assay: IGF-IR phosphorylation in Colo205 cells; format: cell-based
Text: Upon ligand binding, IGF-1R undergoes autophosphorylation on tyrosine residues of the two β-subunits.

[11] = test system: IGF-I induced IGF-IR phosphorylation; assay: IGF-I induced IGF-IR phosphorylation in Hep3B cells (IP/WB); format: cell-based; settings: 10 nM DX-2647
Protocol: as §2

[12] = test system: IGF-II-induced IGF-1R phosphorylation in HepG2 cells; assay: IGF-II-induced IGF-1R phosphorylation in HepG2 cells (IP/WB); format: cell-based; settings: 10 min
Protocol: as §2

[13] = test system: human breast cancer cells; settings: immunodeficient mice; cited from earlier work

T2 sequence (P01344 25-128): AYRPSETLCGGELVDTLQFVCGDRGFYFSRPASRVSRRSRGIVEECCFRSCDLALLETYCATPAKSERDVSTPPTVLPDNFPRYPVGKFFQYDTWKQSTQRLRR
T1 sequence (P01344 25-91): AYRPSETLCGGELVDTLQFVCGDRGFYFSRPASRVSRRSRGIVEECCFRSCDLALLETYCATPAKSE
Sequence of IGF-I (P05019 49-118 limits assumed, species assumed): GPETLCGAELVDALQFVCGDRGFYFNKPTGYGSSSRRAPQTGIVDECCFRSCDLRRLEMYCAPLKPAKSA

DX-2647: IGF II/IGF IIE inhibitory antibody germlined from 566A-M0064-F02 parental clone; SEQ ID NO: 59 and 60
ka IGF-I (IGF-I): 5.8e+06 M⁻¹ s⁻¹
kd IGF-I (IGF-I): 0.1 s⁻¹
ka IGF-II (IGF-II [1]): 1.06 E6 M-1s-1
kd IGF-II (IGF-II [1]): 2.38 E-5 s-1
enhancement of cisplatin (CDDP)-induced cellular cytotoxicity [2]: potently enhanced
inhibition of colony-forming ability of HepG2 cells (HepG2 cells): significantly inhibited
inhibition of IGF-II induced Colo205 cell proliferation [3]: inhibited
lowest concentration showing maximum potency in inhibiting IGF-II stimulated Colo205 proliferation ([3]; 1 nM to 100 nM tested): 10 nM
ka IGF-IIE (IGF-IIE [4]): 2.06 E6 M-1s-1
kd IGF-IIE (IGF-IIE [4]): less than 2 E-5 s-1
inhibition of HepG2 colony formation in soft agar [5]: strongly inhibited
IC50 ([5]; ±0.74 standard error, read-out: mean IC50, anchorage-independent growth of HepG2 cells): 1.5 nM
inhibition of Colo205 proliferation in complete growth medium (Colo205 cells): significantly inhibited
ability to bind IGF-II complexed with the IGFBPs assayed (IGF-II [6]; FIGS. 5A and 5B): inhibited
blocking of IGF-II binding to all three cell-surface receptors for IGF-II (IGF-II [6]; FIGS. 5A and 5B): blocks the binding
binding to IGFBP-1 alone (IGF-II [6]; Fc-captured antibody, FIG. 5A): does not bind
binding to free IGF-II (IGF-II [6]; Fc-captured antibody, FIG. 5A): binds free IGF-II
binding to pre-formed complex of IGF-II and IGFBP-1 (IGF-II [6]; Fc-captured antibody, FIG. 5A): does not bind
inhibition of colony formation of Hep3B cells (Hep3B cells): inhibited colony formation in a dose-dependent manner
ability to bind IGF-IIE complexed with the IGFBPs assayed (IGF-IIE [7]): inhibited
blocking of IGF-IIE binding to all three cell-surface receptors for IGF-II (IGF-IIE [7]): blocks the binding
inhibition of IGF-II-induced IGF-1R phosphorylation ([8]; 0.1 nM DX-2647): partial inhibition
inhibition of IGF-II-induced IGF-1R phosphorylation ([8]; 1 nM DX-2647): complete inhibition
inhibition of autocrine IGF-II induced IGF-1R phosphorylation [9]: significant inhibitory effect
effective concentration for inhibition of IGF-IR phosphorylation [10]: 10 nM
inhibition of IGF-I induced IGF-IR phosphorylation [11]: failed to show significant inhibition
inhibition of IGF-II-induced IGF-1R phosphorylation ([12]; 0.3 nM DX-2647, IGF-II 2.6 nM): Partial inhibition
inhibition of IGF-II-induced IGF-1R phosphorylation ([12]; 3 nM DX-2647, IGF-II 2.6 nM): complete inhibition

pegvisomant: PEGylated analog of human growth hormone, 191 amino acid residues, acting as GH receptor antagonist
growth of human breast cancer cells grown as xenografts [13]: inhibits the growth
